The values that follow come from patent publication US7148250B2, “Indoles as NAALADase inhibitors” (Guilford Pharmaceuticals Inc., priority 2001, dated 2006).

A word on the IC50: it is the concentration needed to halve the response being measured. Higher therefore signals weaker potency.

In one assay the target is T1, NAALADase (Homo sapiens, UniProt Q04609).
T1 construct: from tissue; host or cells: unspecified "tissue"
In words: In vitro inhibition of NAALADase activity. It counts as biochemical. The settings on record: average IC50 values. How it is done:
Various compounds of the invention were tested for in vitro inhibition of NAALADase activity.
The following were combined in assay tubes: 100 μL of 10 mM CoCl2, 250 μof 200 mM Tris chloride, 100 μL tissue, 100 μL of 10 mM NAALADase inhibitor in Bakers H2O, and Bakers H2O to make a total volume of 950 μL. Each assay tube was then incubated for 10 minutes in a 37 EC water bath. […] The assay was stopped by adding 1.0 ml of 0.1 M sodium phosphate.
Glutamate released by the action of the NAALADase enzyme was separated from the assay solution using an anion exchange resin. The resin was equilibrated to 25 EC, 2.0 ml of the resin was added to a Pasteur pipette pre-loaded with a single glass bead, and each column was washed twice with distilled H2O. A column was placed over a scintillation vial and 200 μL of an assay sample was loaded onto the column. After draining, glutamate was eluted using two 1.0 ml washes of 1 M formic acid. After addition of 10 ml of scintillation cocktail, each sample was counted for 2 minutes on a scintillation counter.

The test system of assay [1] is STZ-diabetic rats. Description: Reversal of diabetic neuropathy in STZ model, delayed dosing. Type of assay: in vivo, rat. Conditions: for neuropathic hyperalgesia / motor nerve conduction velocity: daily p.o.; for neuropathic hyperalgesia: treatment from 5 weeks post STZ, within two weeks of treatment; for motor nerve conduction velocity: within 8 weeks of dosing, persisted through 12 weeks. The protocol: Rats (200–225 grams) were injected with STZ (70 mg/kg) into the tail vein. Diabetes (>350 mg/dl) was confirmed in all rats, 4 weeks after STZ administration. Rats were left untreated until 35–49 days after STZ. Compound D (1, 3, or 10 mg/kg), Compound E (10 mg/kg), or vehicle were dosed daily p.o. following confirmation of hyperalgesia and/or nerve conduction velocity deficits. In separate experiments, onset of treatment was delayed until 60 to 90 days after STZ administration. Nerve conduction velocity or withdrawal response to thermal stimulation of hind paws was measured at intervals, usually bi-weekly for thermal response and monthly for nerve conduction velocity.
Sensory and motor nerve conduction velocities were evaluated using the method of De Koning and Gispen (Peptides 8: 415–422, 1987). Electrophysiological evaluation was carried out within one hour of dosing. Animals were anesthetized with isoflurane and stimulating needle electrodes were inserted close to the sciatic nerve at the sciatic notch and the tibial nerve near the ankle. Recording electrodes were placed over the foot muscles. Stimuli were applied and responses recorded. Motor and sensory nerve conduction velocities were calculated by measuring the distance between the sciatic notch and ankle sites, and the latency between the M-wave and the H-reflex.
Animals were acclimated to the apparatus for at least 5 min. An infra-red source was placed under below the plantar surface of the rat hind-paw. The intensity of the source was adjusted so that latency for normal rats was about 10 secs. Animals were tested for thermal response latency according to the method of Hargreaves et al (Pain 77–88, 1988). Each animal was tested 8 times (4 each hind limb) and the latency of response recorded automatically to nearest 0.1 sec. An average of the last 4 measurements for each paw was calculated (8 total measurements) and noted for each rat.

In assay [2] the test system is STZ-diabetic rats. In words: Diabetic neuropathy in STZ model (nerve conduction velocity). Type of assay: in vivo, rat. The protocol: Motor and sensory nerve conduction velocity was also measured in STZ-diabetic animals after 4, 8 and 12 weeks of treatment (see De Koning et al., supra, for a description of the experimental method). Briefly, stimulating needle electrodes were inserted close to the sciatic and tibial nerves with recording electrodes being placed subcutaneously over the distal foot muscles, in anesthetized rats.

Assay [3] relates to STZ-diabetic rats. Description: Neuropathic pain in STZ model (thermal withdrawal latency). It counts as in vivo, rat. The settings on record: 10 mg/kg i.p. daily, treatment from 45 days post STZ. The protocol: Male Sprague-Dawley rats (200–225 g) were rendered diabetic by intravenous administration of streptozotocin (“STZ”, 70 mg/kg in phosphate buffered saline). Diabetic animals were divided into five groups: one group receiving Compound A (10 mg/kg or 1 mg/kg), Compound D (10 mg/kg or 1 mg/kg) or vehicle. Another group of animals (non-STZ treated) served as non-diabetic controls. Drug/vehicle treatment was started in diabetic animals 45 days post-STZ administration. STZ-induced diabetic rats were tested for sensitivity to a heat source as soon as blood glucose levels rose to 320 mg/dl or above (30 days post STZ). The rats were then acclimated to a Hargreaves apparatus and thermal nociception was monitored using an infrared heat source directed into the dorsal surface of the hindpaw, and the time taken for the animal to remove its paw noted to the nearest 0.1 seconds (see Hargreaves et al., supra, for detailed experimental method). The intensity of the beam source was adjusted such that the mean latency for control animals (non-STZ treated) was approximately 10 seconds. Each animal was tested 8 times and the mean difference score (between mean non-diabetic control latency and mean diabetic latency) are graphically presented in FIGS. 7A and 7B.

For a further assay, the system named is BB/W diabetic rats. Description: Progression of neuropathic pain and nerve conduction deficits in BB/W model. It counts as in vivo, rat. The text has this: Male BB/W rats (BRI, Mass) spontaneously develop a cell mediated autoimmune destruction of pancreatic B cells, resulting in onset of insulin-dependent (Type I) diabetes (Guberski 1994). […] This renders them valuable for experimental trials of new compounds for future treatments of this major disorder. In the present study, Compound D and Compound A were examined for their ability to alter the progression of diabetic neuropathy. The rats received daily injection of Compound D or Compound A (10 mg/kg i.p.) or vehicle, starting at the onset of diabetes (hyperglycemia) and up to 6 months thereafter. Another group of non-diabetic rats also receiving vehicle were tested. All animals were continuously monitored for body weight, urine volume, blood sugar and glycated haemoglobin. In the first month of the study, all animals were tested for thermal nociception in a Hargreaves apparatus, weekly. After the first month this was done biweekly and then monthly. The testing consists of directing an infrared heat source onto the dorsal surface of the rat hindpaw and noting the time taken for the animal to remove its paw (see Hargreaves et al., supra, for a description of the experimental method). Each animal was tested 8 times and the mean withdrawal latency noted.
Nerve conduction velocity was also measured every two weeks through the first eight weeks of treatment and every month thereafter through to the six months of treatment (see De Koning et al., Peptides, Vol. 8, No. 3, pp. 415–22 (1987) for a description of the experimental method). […] This was apparent starting at 8 weeks of treatment and persisted to a similar degree through to the six month termination point of the study.

T1 sequence (Q04609 whole entry): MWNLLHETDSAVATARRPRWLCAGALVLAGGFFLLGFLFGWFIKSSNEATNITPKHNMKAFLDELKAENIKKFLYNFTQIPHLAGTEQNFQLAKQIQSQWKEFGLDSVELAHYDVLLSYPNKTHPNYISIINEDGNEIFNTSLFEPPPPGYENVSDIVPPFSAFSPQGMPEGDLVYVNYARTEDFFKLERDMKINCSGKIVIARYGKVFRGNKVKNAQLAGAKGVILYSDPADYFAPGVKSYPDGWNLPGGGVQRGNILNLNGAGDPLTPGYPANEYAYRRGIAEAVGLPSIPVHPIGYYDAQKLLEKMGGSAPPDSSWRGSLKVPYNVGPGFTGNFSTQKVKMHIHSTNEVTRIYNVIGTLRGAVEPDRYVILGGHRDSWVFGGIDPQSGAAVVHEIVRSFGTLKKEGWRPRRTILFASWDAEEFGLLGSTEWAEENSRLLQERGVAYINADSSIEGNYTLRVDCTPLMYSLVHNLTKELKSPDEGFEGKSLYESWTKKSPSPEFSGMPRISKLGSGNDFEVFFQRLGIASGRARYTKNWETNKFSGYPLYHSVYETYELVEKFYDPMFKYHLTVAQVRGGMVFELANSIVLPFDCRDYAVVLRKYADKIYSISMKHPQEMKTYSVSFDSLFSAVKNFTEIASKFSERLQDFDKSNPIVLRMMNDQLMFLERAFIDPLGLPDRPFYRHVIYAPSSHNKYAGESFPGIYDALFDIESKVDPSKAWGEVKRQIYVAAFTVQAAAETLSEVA

At NAALADase, `O=C(O)c1[nH]c2ccccc2c1CCS` [Compound 1, 3-(2-mercaptoethyl)-1H-indole-2-carboxylic acid] returned a half-inhibitory concentration (IC50) of 1.24 µM.
The same measure, in the same setting: next, `O=C(O)c1[nH]c2c(C(=O)O)cccc2c1CCS` [Compound 2, 3-(2-mercaptoethyl)-1H-indole-2,7-dicarboxylic acid]: 0.76 µM; `O=C(O)c1cccc(Cn2c(C(=O)O)c(CCS)c3ccccc32)c1` [Compound 3, 1-[(3-carboxyphenyl)methyl]-3-(2-mercaptoethyl)-1H-indole-2-carboxylic acid]: 0.0553 µM; `O=C(O)c1ccc(Br)c(Cn2c(C(=O)O)c(CCS)c3ccccc32)c1` [Compound 4, 1-[(2-bromo-5-carboxyphenyl)methyl]-3-(2-mercaptoethyl)-1H-indole-2-carboxylic acid]: 0.0543 µM.
On the same count and under the same terms, next, `O=C(O)c1ccc(Cn2c(C(=O)O)c(CCS)c3ccccc32)cc1` [Compound 5, 1-[(4-carboxyphenyl)methyl]-3-(2-mercaptoethyl)-1H-indole-2-carboxylic acid]: 0.0665 µM; `O=C(O)c1c(CCS)c2ccccc2n1Cc1ccccc1` [Compound 6, 3-(2-mercaptoethyl)-1-(phenylmethyl)-1H-indole-2-carboxylic acid]: 12.1 µM.
Consider `O=C(O)c1ccccc1Cn1c(C(=O)O)c(CCS)c2ccccc21` [Compound 7, 1-[(2-carboxyphenyl)methyl]-3-(2-mercaptoethyl)-1H-indole-2-carboxylic acid], for which the IC50 against NAALADase is 0.0185 µM.
The same measure, in the same setting: as for `CC(C)(C)c1cc(Cn2c(C(=O)O)c(CCS)c3ccccc32)cc(C(=O)O)c1` [Compound 8, 1-[[3-carboxy-5-(1,1-dimethylethyl)-phenyl]methyl]-3-(2-mercaptoethyl)-1H-indole-2-carboxylic acid], the figure is 0.035 µM; as for `O=C(O)c1cc(Cn2c(C(=O)O)c(CCS)c3ccccc32)ccc1Br` [Compound 9, 1-[(4-bromo-3-carboxyphenyl)methyl]-3-(2-mercaptoethyl)-1H-indole-2-carboxylic acid], 0.104 µM.
On the same count and under the same terms, as for `COc1ccc(C(=O)O)c(Cn2c(C(=O)O)c(CCS)c3ccccc32)c1` [Compound 10, 1-[(2-carboxy-5-methoxyphenyl)methyl]-3-(2-mercaptoethyl)-1H-indole-2-carboxylic acid], the figure is 0.012 µM; as for `O=C(O)c1c(CCS)c2ccccc2n1-c1ccccc1` [Compound 11, 3-(2-mercaptoethyl)-1-phenyl-1H-indole-2-carboxylic acid], 4.74 µM.
Same read-out and setting: next, `O=C(O)c1c(CCS)c2ccccc2n1CCc1ccccc1` [Compound 12, 3-(2-mercaptoethyl)-1-(2-phenylethyl)-1H-indole-2-carboxylic acid]: 44 µM.
Consider `O=C(O)CCC(CCS)C(=O)O` (stereo not shown) [Compound D, 2-(2-sulfanylethyl)-pentanedioic acid], for which the “sensory and motor nerve conduction velocity deficits” value in the assay with STZ-diabetic rats [1] (STZ rats untreated until 60 days after STZ, external CRO) was “Partial reversal”. In the assay with STZ-diabetic rats [1] (STZ rats, 1 and 3 mg/kg, treatment from 7 weeks post STZ), the neuropathic pain abnormalities entry is “Significant reduction”. For the same compound, in the assay on STZ-diabetic rats [1] (STZ rats, 1 and 3 mg/kg, treatment from 7 weeks post STZ, 8 weeks after dosing), the motor nerve conduction result is “remained unimproved”. Further, the sensory nerve conduction entry in the assay on STZ-diabetic rats [1] (STZ rats, 1 and 3 mg/kg, treatment from 7 weeks post STZ, within 4 weeks of treatment) is listed as “significantly improved towards normal”. In the assay on STZ-diabetic rats [1] (STZ rats), the neuropathic hyperalgesia entry was “reversed towards normal” and the “motor nerve conduction velocity” value was “reversed the motor nerve conduction velocity towards normal”. Also, the “motor and sensory nerve conduction velocities” value in the assay on STZ-diabetic rats [2] (1 mg/kg) was “increased”. In the assay on STZ-diabetic rats [2] (10 mg/kg daily, 4, 8 and 12 weeks), the “motor and sensory nerve conduction velocities” value is “increased”. In addition, in the assay with STZ-diabetic rats [3], the “hyperalgesic response (withdrawal latency difference score)” value was “completely reversed”. Moreover, the “nerve conduction velocity deficits versus diabetic vehicle controls” value in the assay with BB/W diabetic rats (10 mg/kg daily, from 8 weeks to six months) is on record as “significantly less severe nerve conduction deficits”. Also, the “withdrawal latency versus diabetic vehicle-treated rats” value with BB/W diabetic rats (10 mg/kg i.p. daily, from 4 weeks through six months of treatment) is “longer withdrawal latencies”.
As to `O=C(O)c1cccc(CC(CCCS)C(=O)O)c1` (stereo not drawn) [Compound E, 3-carboxy-alpha-(3-mercaptopropyl)benzenepropanoic acid], in the assay on STZ-diabetic rats [1] (STZ rats), the neuropathic hyperalgesia result is on record as “reversed towards normal” and the “motor nerve conduction velocity” value is on record as “reversed the motor nerve conduction velocity towards normal”.
